As usually defined, the IC50 is the concentration that inhibits the measured activity by half.

SMILES strings stand for the structures.

The record followed here is paper PMC12444508, “Mechanistic Insights into the Anticancer Action of Novel 2‑Hydroxy-1,4-naphthoquinone Thiol Derivatives” (ACS Omega, 2025).

In one assay the test system is SCC-9 cells (OSCC cells). The experiment in a line: MTT cell viability assay, SCC-9. The assay is classed as cell-based, human. As to conditions: for IC50: Homo sapiens, SCC-9, 72 h, MTT, read-out: IC50 SCC-9 oral cancer; for SI (SCC-9): IC50 normal oral fibroblast / IC50 SCC-9. The protocol:
(§1) Human SCC-4, SCC-9, and SCC-25 cells, derived from a human oral tongue SCC (squamous cell carcinoma), were obtained from ATCC (CRL-1624, CRL-1629, and CRL-1628, respectively) and maintained in 1:1 DMEM/F12 (Dulbecco’s modified Eagle’s medium and Ham’s F12 medium; Gibco (Thermo Fisher, Waltham, MA, USA)) supplemented with 10% (v/v) FBS (fetal bovine serum; Invitrogen, Thermo Fisher, Waltham, MA, USA) and 400 ng/mL hydrocortisone (Sigma-Aldrich Corporation, St. Louis, MO, USA). B16-F10 (melanoma; CRL-6475), HCT-116 (colorectal cancer; CCL-247), and HepG2 (liver cancer; HB-8065), in addition to primary normal human gingival fibroblasts obtained from ATCC (PCS-201-018), were maintained in DMEM supplemented with 10% (v/v) of FBS and were used in a maximum of six passages. Cells were grown in a humidified environment containing 5% CO2 at 37 °C. For all biological assays, compounds and shikonin were solubilized in 100% DMSO (all Sigma-Aldrich Corp.) to a final concentration of 10 mM and lapachol in ethanol. The carboplatin control was prepared in water (Fauldcarbo; Libbs Farmacêutica, São Paulo, SP, Brazil) and was used as a standard anticancer compound.
(§2) The viability of OSCC cell lines and primary human fibroblast cells was assessed using the MTT assay as in ref . Briefly, cells were grown in triplicate in 96-well plates (5 × 10^3 cells/well) until confluence. Then, the medium was removed, fresh medium was added, and the cells were returned to the incubator in the presence of different compounds. DMSO at the same concentration was used as a control for 100% cell viability. After 72 h, cells were incubated with 0.5 mg/mL of MTT reagent (3-(4,5-dimethyl-2-thiazolyl)-2,5-diphenyl-2-H-tetrazolium bromide) (Sigma-Aldrich Corporation, Louis, MO, USA) for 3.5 h. Then, the wells containing the cells were washed with PBS heated to 37 °C, the formazan crystals were dissolved in a solvent solution (DMSO/methanol 1:1 v/v), and the absorbance was read at 560 nm using an EPOCH microplate spectrophotometer (BioTek Instruments, Winooski, VT, USA) with the background absorbance at 670 nm subtracted. Control chemotherapeutics (carboplatin and shikonin) were used.
(§3) Data are presented as means ± SD. IC50 values for the MTT assays were obtained by nonlinear regression using the […] 8.4.3.0 program (Intuitive Software for Science, San Diego, CA, USA) from at least three independent experiments. A dose–response curve (inhibitor) vs response using the least-squares method was used to determine the IC50, SD, and R2 of the data. The selectivity index was calculated as SI = IC50 of the compound in normal oral fibroblast cells/IC50 of the same compound for each oral cancer cell line (SCC-4, SCC-9, and SCC-25) and averaged when indicated.
In general terms: Formazan colour is commonly taken as a measure of viable cells.

Assay [1] concerns primary normal human gingival fibroblasts. The assay can be described thus: MTT cell viability assay, primary gingival fibroblasts. The assay is classed as cell-based. As to conditions: Homo sapiens, Fibroblast; 72 h, MTT; read-out: IC50 primary gingival fibroblast. The protocol: as §1, §2, §3
In the next assay the test system is SCC-25 cells. The experiment in a line: MTT cell viability assay, SCC-25. As to conditions: for IC50: Homo sapiens, SCC-25, 72 h, MTT, read-out: IC50 SCC-25; for selective index (SI) SCC-25: vs normal oral fibroblasts. It counts as cell-based, human. The protocol: as §1, §2, §3
In the next assay the test system is SCC-4 cells. The assay can be described thus: MTT cell viability assay, SCC-4. It counts as cell-based, human. The following applies: for IC50: Homo sapiens, SCC-4, 72 h, MTT, read-out: IC50 SCC-4; for selective index (SI) SCC-4: vs normal oral fibroblasts. The protocol: as §1, §2, §3
Assay [2] concerns SCC-9 cells. The experiment in a line: Reactive oxygen species production (ROS-Glo H2O2). The assay is classed as cell-based, human. The following applies: 2 × IC50, 24, 48 and 72 h, menadione positive control. The protocol:
The assay was performed in SCC-9 cells as previously described. […] Menadione (M9529, Sigma-Aldrich Corporation, San Luis, Mo., USA), at a concentration of 20 μM, served as a positive control, while DMSO, at equivalent concentrations to the test substances, served as the negative control. Cells were then incubated at 37 °C with 5% CO2 for the indicated time, and ROS was measured by ROS-Glo H2O2 Assay G8820 (Promega Corporation, Madison, WI 53711 USA) as indicated by the vendor. The luminescence signal was measured using a luminescence detector, Luminometer TD-20/20 (Turner Designs Instrument, Sunnyvale, CA, USA).

Assay [3] deals with SCC-9 cells. The assay can be described thus: Cell migration (wound healing) assay. The assay is classed as cell-based, human. As to conditions: 1/8 of IC50, 72 h, SCC-9, mitomycin C. The protocol:
To evaluate the inhibitory capacity of cell migration by substances 7a and 7e, 2 × 10^5 cells of the SCC-9 lineage were plated in a 35 mm Petri dish containing 2.0 mL of supplemented DMEN/F-12 medium and incubated at 37 °C with 5% CO2 until they reached at least ∼100% confluence. After this time, the metabolized medium was removed, and the cells were washed once with PBS and fresh medium (2.0 mL) treated with mitomycin C (MMC), 1-amino-9a-metoxi-7-metil-4,7,9,9a-tetra-hidro-3H-furo[3,4:6,7]-nafto[1,2-d]-imidazole-2(1H)-ona (Sigma-Aldrich Corporation, San Luis, Missouri, USA) at a concentration of 0.5 mg/mL, in a volume of 0.5 μL/mL, and returned to the incubator for 2 h. At the end of the time, scratch wounds were created on the cell monolayer by using a 200 μL capacity tip. […] The plate containing the cells was inserted into a chamber adapted to a Leica DMi1 inverted optical microscope (Leica Microsystems, Wetzlar, Germany) under controlled conditions of CO2 (5%) and temperature (37 °C). Phase contrast images in timelapse footage at 20× magnification for 72 h were captured every 2 min and 24 s. Measurements between the captured margins were collected using ImageJ analysis software (National Institute of Health, USA). […] The percentage of wound closure at each subsequent time is calculated in relation to the initial distance (time: 0 h).

Consider `CC1(C)OC2=C(C(=O)c3ccccc3C2=O)C(Sc2ccccc2)C1Sc1ccccc1` (stereo not drawn) [7a, 2,2-Dimethyl-3,4-bis(phenylthio)-3,4-dihydro-2H-benzo[g]chromene-5,10-dione], for which, in the assay on SCC-9 cells (OSCC cells), the concentration for half-maximal inhibition (IC50) amounted to 26.3 µM and the “SI (SCC-9)” value was 2.2. Moreover, in assay [1], the half-inhibitory concentration (IC50) was found to be 57.3 µM. Also, in the assay on SCC-25 cells, the IC50 worked out at 28.2 µM and the “selective index (SI) SCC-25” value amounted to 2.0. Besides, in the assay on SCC-4 cells, the IC50 was 10.6 µM and the “selective index (SI) SCC-4” value amounted to 5.4. For the same compound, the ROS production entry in the assay on SCC-9 cells [2] is “induced the generation of ROS”. This compound also gave a wound closure in the assay with SCC-9 cells [3] of 28.4%.

For `COc1ccc(SC2C3=C(OC(C)(C)C2Sc2ccc(OC)cc2)C(=O)c2ccccc2C3=O)cc1` (stereo not drawn) [7e, 3,4-Bis((4-methoxyphenyl)thio)-2,2-dimethyl-3,4-dihydro-2H-benzo[g]chromene-5,10-dione], the IC50 amounted to 46.5 µM with SCC-9 cells (OSCC cells), 110 µM in assay [1], 13 µM in the assay on SCC-25 cells and 57.1 µM in the assay with SCC-4 cells. Further, in the assay on SCC-9 cells (OSCC cells), the “SI (SCC-9)” value stood at 2.4. Besides, in the assay on SCC-25 cells, the “selective index (SI) SCC-25” value is given as 8.5. Moreover, in the assay with SCC-4 cells, the “selective index (SI) SCC-4” value is given as 1.9. For the same compound, in the assay on SCC-9 cells [2], the ROS production entry is “induced the generation of ROS”. Further, the wound closure in the assay on SCC-9 cells [3] is on record as 54.7%.
